# Assay results published in patent US9115133B2, “Substituted fused tricyclic compounds, compositions and medicinal applications thereof” (Advinus Therapeutics Limited, priority 2011, dated 2015).
# Assays:
# Assay type in all cases: biochemical
# Details in all cases: 200 μg/ml Poly Glu-Tyr (4:1), ATP 1 uM, 90 min room temperature, luminescence
# [1] = biological target: T1, Recombinant JAK2 (Amino acids 808-1132) (Homo sapiens, UniProt O60674); assay: Kinase-Glo Luminescent Kinase Assay, recombinant JAK2
# T1 construct: JAK2 (Amino acids 808-1132; NM_004972.3); made in house; host or cells: baculovirus expression system (Bac-to-Bac)
# T1 sequence (O60674 808-1132): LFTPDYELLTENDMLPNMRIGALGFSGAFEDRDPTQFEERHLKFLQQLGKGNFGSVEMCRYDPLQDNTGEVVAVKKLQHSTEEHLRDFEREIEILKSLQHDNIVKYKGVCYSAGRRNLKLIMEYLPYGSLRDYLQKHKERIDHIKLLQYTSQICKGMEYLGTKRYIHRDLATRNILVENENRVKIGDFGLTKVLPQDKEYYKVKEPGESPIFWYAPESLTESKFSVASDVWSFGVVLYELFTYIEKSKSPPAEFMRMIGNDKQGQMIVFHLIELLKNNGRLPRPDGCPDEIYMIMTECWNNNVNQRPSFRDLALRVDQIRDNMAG
# Text: Recombinant JAK1 (Amino acids 850-1154; NM_002227.2), JAK2 (Amino acids 808-1132; NM_004972.3) and JAK3 (Amino acids 781-1124; NM_000215.3) used in the studies were expressed using Invitrogen's Bac-to-Bac baculovirus expression system according to manufacturer's instructions. Adenosine 5′-triphosphate was obtained from Sigma Aldrich chemicals (Cat # A7699). Poly Glu-Tyr (4:1) sodium salt was obtained from Sigma Aldrich (Cat # P0275), Kinase Glo® Luminescent Kinase assay kit was obtained from Promega (Cat # V6713) Kinase activity was assessed by Promega Kinase-Glo® Luminescent Kinase Assay kit using 200 μg/ml Poly Glu-Tyr (4:1) as substrate and ATP at 1 uM concentration. The reactions were carried out in 384 well plates in total reaction volume of 20 uL. Reaction mixtures contained 50 mM HEPES pH 7.4, 5 mM MgCl2, 1 mM DTT, 0.01% BSA, 0.01% Tween 20. Kinase was pre-incubated with compounds or 1% DMSO for 5 min before addition of substrate and ATP to check for inhibition. Kinase reactions were carried out at room temperature for 90 min. The reactions were stopped by adding 5 μl of Kinase Glo® reagent & 10 μl of reaction mixture followed by measuring luminescence. The luminescent signal is correlated with the amount of ATP present at the end of kinase reaction and is inversely correlated with the amount of kinase activity. For each data point, % inhibition is calculated based on uninhibited reaction (without compound) which is considered as 100% activity over no enzyme or substrate controls. Dose response data is then fit using a four parameter logistic equation using Graph-pad Prism 5 software to determine inhibition constant 50 (IC50).
# [2] = biological target: T2, Recombinant JAK3 (Amino acids 781-1124) (Homo sapiens, UniProt P52333); assay: Kinase-Glo Luminescent Kinase Assay, recombinant JAK3
# T2 construct: JAK3 (Amino acids 781-1124; NM_000215.3); made in house; host or cells: baculovirus expression system (Bac-to-Bac)
# T2 sequence (P52333 781-1124): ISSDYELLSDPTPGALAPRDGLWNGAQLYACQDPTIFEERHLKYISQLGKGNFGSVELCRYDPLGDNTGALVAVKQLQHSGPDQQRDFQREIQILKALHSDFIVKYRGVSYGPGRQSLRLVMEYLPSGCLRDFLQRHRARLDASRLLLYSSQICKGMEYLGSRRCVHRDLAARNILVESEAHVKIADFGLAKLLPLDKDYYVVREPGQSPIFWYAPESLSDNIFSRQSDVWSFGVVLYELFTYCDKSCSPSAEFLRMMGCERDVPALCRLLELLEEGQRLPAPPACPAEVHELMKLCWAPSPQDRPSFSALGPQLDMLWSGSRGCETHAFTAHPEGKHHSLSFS
# Method in brief: (§1)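 Baculovirus-expressed kinase domains were pre-incubated 5 min with compound (1% DMSO), then reacted 90 min at room temperature with 200 μg/ml poly Glu-Tyr (4:1) and 1 uM ATP in 50 mM HEPES pH 7.4, 5 mM MgCl2. Remaining ATP was read by Kinase-Glo luminescence. IC50 came from four-parameter logistic fits.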
# [3] = biological target: T3, Recombinant JAK1 (Amino acids 850-1154) (Homo sapiens, UniProt P23458); assay: Kinase-Glo Luminescent Kinase Assay, recombinant JAK1
# T3 construct: Recombinant JAK1 (Amino acids 850-1154; NM_002227.2); made in house; host or cells: baculovirus expression system (Bac-to-Bac)
# T3 sequence (P23458 850-1154): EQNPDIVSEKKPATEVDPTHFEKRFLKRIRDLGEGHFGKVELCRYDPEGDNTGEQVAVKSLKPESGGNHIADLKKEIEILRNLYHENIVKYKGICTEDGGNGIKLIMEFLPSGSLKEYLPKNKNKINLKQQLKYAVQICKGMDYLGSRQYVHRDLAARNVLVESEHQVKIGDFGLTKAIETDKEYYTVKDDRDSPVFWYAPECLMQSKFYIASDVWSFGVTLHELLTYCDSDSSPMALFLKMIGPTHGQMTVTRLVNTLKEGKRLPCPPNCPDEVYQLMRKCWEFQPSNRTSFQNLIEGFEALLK
# Method in brief: as §1
IC50 [1],IC50 [2],IC50 [3],Structure (SMILES)
1 to 20 nM,> 20 nM,1 to 20 nM,"O=C(CC(F)(F)F)N1CCCC(c2ncnc3cnc4[nH]ccc4c23)C1 (stereo not drawn) [Ex. 24, 3,3,3-Trifluoro-1-[3-(3H-3,4,6,8-tetraazacyclopenta[a]naphthalen-9-yl)-piperidin-1-yl]-propan-1-one]"
> 20 nM,> 20 nM,> 20 nM,"CCC(=O)N1CCCC(c2ncnc3cnc4[nH]ccc4c23)C1 (stereo not drawn) [Ex. 27, 1-[3-(3H-3,4,6,8-Tetraaza-cyclopenta[a]naphthalen-9-yl)-piperidin-1-yl]-propan-1-one]"
1 to 20 nM,> 20 nM,1 to 20 nM,"CC(C)(C)C(=O)N1CCCC(c2ncnc3cnc4[nH]ccc4c23)C1 (stereo not drawn) [Ex. 28, 2,2-Dimethyl-1-[3-(3H-3,4,6,8-tetraaza-cyclopenta[a]naphthalen-9-yl)-piperidin-1-yl]-propan-1-one]"
> 20 nM,> 20 nM,> 20 nM,"CCNC(=O)N1CCCC(c2ccnc3cnc4[nH]ccc4c23)C1 (stereo not drawn) [Ex. 48, N-ethyl-3-(3H-pyrrolo[3,2-f][1,7]naphthyridin-9-yl)piperidine-1-carboxamide]"
1 to 20 nM,> 20 nM,1 to 20 nM,"N#CCS(=O)(=O)N1CCC(c2ccnc3cnc4[nH]ccc4c23)C1 (stereo not drawn) [Ex. 16, 2-[3-(3H-pyrrolo[3,2-f][1,7]naphthyridin-9-yl)pyrrolidin-1-yl]sulfonylacetonitrile]"
> 20 nM,> 20 nM,> 20 nM,"CC(C)C(=O)N1CCCC(c2ncnc3cnc4[nH]ccc4c23)C1 (stereo not drawn) [Ex. 22, 2-Methyl-1-[3-(3H-3,4,6,8-tetraazacyclopenta[a]naphthalen-9-yl)-piperidin-1-yl]-propan-1-one]"
1 to 20 nM,> 20 nM,1 to 20 nM,"N#CCC(=O)N1CC[C@@H](c2ccnc3cnc4[nH]ccc4c23)C1 [Ex. 14B, (S)3-oxo-3-[3-(3H-pyrrolo[3,2-f][1,7]naphthyridin-9-yl)pyrrolidin-1-yl]propanenitrile]"
> 20 nM,> 20 nM,> 20 nM,"CC(C)/C(=N\C#N)N1CCC[C@H](c2ccnc3cnc4[nH]ccc4c23)C1 [Ex. 43A, (R)(E)-[2-methyl-1-[3-(3H-pyrrolo[3,2-f][1,7]naphthyridin-9-yl)-1-piperidyl]propylidene]cyanamide]"
1 to 20 nM,> 20 nM,1 to 20 nM,"N#C/N=C(\CC(F)(F)F)N1CCCC(c2ccnc3cnc4[nH]ccc4c23)C1 (stereo not drawn) [Ex. 44, (E)-[3,3,3-trifluoro-1-[3-(3H-pyrrolo[3,2-f][1,7]naphthyridin-9-yl)-1-piperidyl]propylidene]cyanamide]"
1 to 20 nM,> 20 nM,1 to 20 nM,"CC(C)CS(=O)(=O)N1CCC(c2ccnc3cnc4[nH]ccc4c23)C1 (stereo not drawn) [Ex. 18, 9-(1-isobutylsulfonylpyrrolidin-3-yl)-3H-pyrrolo[3,2-f][1,7]naphthyridine]"
1 to 20 nM,1 to 20 nM,1 to 20 nM,"CS(=O)(=O)N1CCCC(c2ccnc3cnc4[nH]ccc4c23)C1 (stereo not drawn) [Ex. 10, 9-(1-methylsulfonyl-3-piperidyl)-3H-pyrrolo[3,2-f][1,7]naphthyridine]"
1 to 20 nM,> 20 nM,1 to 20 nM,"N#C/N=C(\CC(F)(F)F)N1CCC(c2ccnc3cnc4[nH]ccc4c23)C1 (stereo not drawn) [Ex. 45, (E)-[3,3,3-trifluoro-1-[3-(3H-pyrrolo[3,2-f][1,7]naphthyridin-9-yl)pyrrolidin-1-yl]propylidene]cyanamide]"
> 20 nM,> 20 nM,> 20 nM,"CC(C)CNC(=O)N1CCCC(c2ccnc3cnc4[nH]ccc4c23)C1 (stereo not drawn) [Ex. 49, N-isobutyl-3-(3H-pyrrolo[3,2-f][1,7]naphthyridin-9-yl)piperidine-1-carboxamide]"
> 20 nM,> 20 nM,> 20 nM,"CC(C)CS(=O)(=O)N1CCCC(c2ncnc3cnc4[nH]ccc4c23)C1 (stereo not drawn) [Ex. 30, 9-[1-(2-Methyl-propane-1-sulfonyl)-piperidin-3-yl]-3H-3,4,6,8-tetraaza-cyclopenta[a]naphthalene]"
1 to 20 nM,1 to 20 nM,1 to 20 nM,"N#CCC(=O)N1CCCC(c2ccnc3cnc4[nH]ccc4c23)C1 (stereo not drawn) [Ex. 1, 3-oxo-3-[3-(3H-pyrrolo[3,2-f][1,7]naphthyridin-9-yl)-1-piperidyl]propanenitrile]"
1 to 20 nM,1 to 20 nM,1 to 20 nM,"CS(=O)(=O)N1CCC[C@@H](c2ccnc3cnc4[nH]ccc4c23)C1 [Ex. 10B, (S)9-(1-methylsulfonyl-3-piperidyl)-3H-pyrrolo[3,2-f][1,7]naphthyridine]"
1 to 20 nM,> 20 nM,1 to 20 nM,"N#CCC(=O)N1CCC(c2ccnc3cnc4[nH]ccc4c23)C1 (stereo not drawn) [Ex. 14, 3-oxo-3-[3-(3H-pyrrolo[3,2-f][1,7]naphthyridin-9-yl)pyrrolidin-1-yl]propanenitrile]"
> 20 nM,> 20 nM,> 20 nM,"N#CCC(=O)N1CCC[C@@H](c2ncnc3cnc4[nH]ccc4c23)C1 [Ex. 23A, (R)3-Oxo-3-[3-(3H-3,4,6,8-tetraazacyclopenta[a]naphthalen-9-yl)-piperidin-1-yl]-propionitrile]"
> 20 nM,> 20 nM,> 20 nM,"N#CCC(=O)N1CC[C@H](c2ccnc3cnc4[nH]ccc4c23)C1 [Ex. 14A, (R)3-oxo-3-[3-(3H-pyrrolo[3,2-f][1,7]naphthyridin-9-yl)pyrrolidin-1-yl]propanenitrile]"
> 20 nM,> 20 nM,> 20 nM,"N#CCC(=O)N1CCN(c2ccnc3cnc4[nH]ccc4c23)CC1 [Ex. 102, 3-oxo-3-[4-(3H-pyrrolo[3,2-f][1,7]naphthyridin-9-yl)piperazin-1-yl]propanenitrile]"
> 20 nM,> 20 nM,1 to 20 nM,"O=C(C1CCOC1)N1CCCC(c2ncnc3cnc4[nH]ccc4c23)C1 (stereo not drawn) [Ex. 26, [3-(3H-3,4,6,8-Tetraaza-cyclopenta[a]naphthalen-9-yl)-piperidin-1-yl]-(tetrahydro-furan-3-yl)-mathanone]"
1 to 20 nM,> 20 nM,> 20 nM,"O=S(=O)(N1CCC(c2ccnc3cnc4[nH]ccc4c23)C1)C(F)(F)F (stereo not drawn) [Ex. 17, 9-[1-(trifluoromethylsujlfonyl)pyrrolidin-3-yl]-3H-pyrrolo[3,2-f][1,7]naphthyridine]"
> 20 nM,> 20 nM,> 20 nM,"O=S(=O)(C1CC1)N1CCCC(c2ncnc3cnc4[nH]ccc4c23)C1 (stereo not drawn) [Ex. 31, 9-(1-Cyclopropanesulfonyl-piperidin-3-yl)-3H-3,4,6,8-tetraaza-cyclopenta[a]naphthalene]"
> 20 nM,> 20 nM,> 20 nM,"CN(C(=O)CC(F)(F)F)C1CCCN(c2ccnc3cnc4[nH]ccc4c23)C1 (stereo not drawn) [Ex. 65, 3,3,3-trifluoro-N-methyl-N-[1-(3H-pyrrolo[3,2-f][1,7]naphthyridin-9-yl)-3-piperidyl]propanamide]"
> 20 nM,> 20 nM,> 20 nM,"O=C(C1CC1)N1CCCC(c2ncnc3cnc4[nH]ccc4c23)C1 (stereo not drawn) [Ex. 29, Cyclopropyl-[3-(3H-3,4,6,8-tetraaza-cyclopenta[a]naphthalen-9-yl)-piperidin-1-yl]-methanone]"
> 20 nM,> 20 nM,> 20 nM,"CNC(=O)C1CCCN(c2ccnc3cnc4[nH]ccc4c23)C1 (stereo not drawn) [Ex. 71, N-methyl-1-(3H-pyrrolo[3,2-f][1,7]naphthyridin-9-yl)piperidine-3-carboxamide]"
1 to 20 nM,1 to 20 nM,1 to 20 nM,"CCS(=O)(=O)N1CCCC(c2ccnc3cnc4[nH]ccc4c23)C1 (stereo not drawn) [Ex. 9, 9-(1-ethylsulfonyl-3-piperidyl)-3H-pyrrolo[3,2-f][1,7]naphthyridine]"
> 20 nM,> 20 nM,> 20 nM,"O=C(NC1CCCN(c2ccnc3cnc4[nH]ccc4c23)C1)C1CC1 (stereo not drawn) [Ex. 74, N-[1-(3H-pyrrolo[3,2-f][1,7]naphthyridin-9-yl)-3-piperidyl] cyclopropanecarbox-amide]"
